Common to all, as to format: in vivo
The subject of test [1] is Cabbage Looper (Trichoplusia ni, TRIPNI). As to the kind of experiment: Bioassay on Cabbage Looper (CL), 128-well diet tray assay. To be noted: Trichoplusia ni; Species CL (Cabbage Looper); read-out: CL (Biological Results, rating). The method, boiled down: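 Test molecule is dissolved in 90:10 acetone-water and applied at 50 μg/cm^2 onto artificial diet, then dried. One to five second-instar larvae go into each of eight wells. Trays, sealed but vented, stay at 25° C., 14:10 light-dark, five to seven days, after which mortality is averaged.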

Test [2] concerns Beet Armyworm (Spodoptera exigua, LAPHEG). Briefly: Bioassay on Beet Armyworm (BAW), 128-well diet tray assay. The note with it: Species BAW (Beet Armyworm), read-out: BAW (Biological Results, rating). The method, boiled down:
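In a 128-well format, eight wells per compound received a surface dose of 50 μg/cm^2 on artificial diet. After drying, each well got one to five second instar larvae, held at 25° C. with 14:10 photoperiod. Mortality percentages after five to seven days were averaged.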

The subject of test [3] is Yellow Fever Mosquito (Aedes aegypti, AEDSAE). Briefly: Bioassay on Yellow Fever Mosquito (YFM), 96-well plate larval assay. To be noted: Species YFM (Yellow Fever Mosquito). The procedure:
Certain molecules disclosed in this document were tested against YFM using procedures described in the following paragraph. In the reporting of the results, the “GPA & YFM Rating Table” was used (See Table Section).
Master plates containing 400 μg of a molecule dissolved in 100 μL of dimethyl sulfoxide (DMSO) (equivalent to a 4000 ppm solution) are used. A master plate of assembled molecules contains 15 μL per well. To this plate, 135 μL of a 90:10 water/acetone mixture is added to each well. A robot is programmed to dispense 15 μL aspirations from the master plate into an empty 96-well shallow plate (“daughter” plate). There are 6 reps (“daughter” plates) created per master. The created “daughter” plates are then immediately infested with YFM larvae.
The day before plates are to be treated, mosquito eggs are placed in Millipore water containing liver powder to begin hatching (4 g. into 400 mL). After the “daughter” plates are created using the robot, they are infested with 220 μL of the liver powder/larval mosquito mixture (about 1 day-old larvae). After plates are infested with mosquito larvae, a non-evaporative lid is used to cover the plate to reduce drying. Plates are held at room temperature for 3 days prior to grading. After 3 days, each well is observed and scored based on mortality. The results are indicated in the table entitled “Table ABC: Biological Results” (See Table Section).

Consider `O=C(Nc1ccc(Cl)nc1)c1cc(NC(=O)[C@H]2[C@H](c3cc(Cl)cc(Cl)c3)C2(Cl)Cl)ccc1Cl` (relative stereo) [F32, trans-2-Chloro-N-(6-chloropyridin-3-yl)-5-(2,2-dichloro-3-(3,5-dichlorophenyl)cyclopropane-1-carboxamido)benzamide], for which the pest or weed control at 50 µg/cm2 in test [1] and in test [2] was 50 to 100% in each case. In addition, the “YFM (Biological Results, rating)” value in test [3] is on record as “A (80-100)”.
Regarding `O=C(Nc1ccc(F)cc1)c1cc(NC(=O)[C@H]2[C@H](c3cccc(C(F)(F)F)c3)C2(Cl)Cl)ccc1Cl` (relative stereo) [F56, trans-2-Chloro-5-(2,2-dichloro-3-(3-(trifluoromethyl)phenyl)cyclopropane-1-carboxamido)-N-(4-fluorophenyl)benzamide], the pest or weed control at 50 µg/cm2 in test [1] and in test [2] was 50 to 100% throughout. The “YFM (Biological Results, rating)” value in test [3] is listed as “B (More than 0-Less than 80)”.
Consider `CN(C(=O)c1cc(NC(=O)[C@H]2[C@H](c3cccc(C(F)(F)F)c3)C2(Cl)Cl)ccc1Cl)c1ccc(F)cc1` (relative stereo) [F57, trans-2-Chloro-5-(2,2-dichloro-3-(3-(trifluoromethyl)phenyl)cyclopropane-1-carboxamido)-N-(4-fluorophenyl)-N-methylbenzamide], for which the pest or weed control at 50 µg/cm2 in test [1] and in test [2] was 50 to 100% throughout. The “YFM (Biological Results, rating)” value in test [3] is given as “B (More than 0-Less than 80)”.
Turning to `O=C(Nc1c(F)cccc1F)c1cc(NC(=O)[C@H]2[C@H](c3cccc(C(F)(F)F)c3)C2(Cl)Cl)ccc1Cl` (relative stereo) [F58, trans-2-Chloro-5-(2,2-dichloro-3-(3-(trifluoromethyl)phenyl)cyclopropane-1-carboxamido)-N-(2,6-difluorophenyl)benzamide], the pest or weed control at 50 µg/cm2 in test [1] and in test [2] was 50 to 100% throughout. The “YFM (Biological Results, rating)” value in test [3] was “A (80-100)”.
In the case of `CN(C(=O)c1cc(NC(=O)[C@H]2[C@H](c3ccc(Cl)c(Cl)c3)C2(Cl)Cl)ccc1F)c1ccc(F)cc1` (relative stereo) [F59, trans-5-(2,2-Dichloro-3-(3,4-dichlorophenyl)cyclopropane-1-carboxamido)-2-fluoro-N-(4-fluorophenyl)-N-methylbenzamide], the pest or weed control at 50 µg/cm2 in test [1] and in test [2] was 50 to 100% each time. In addition, in test [3], the “YFM (Biological Results, rating)” value is on record as “A (80-100)”.
As for `O=C(Nc1ccc(F)cc1F)c1cc(NC(=O)[C@H]2[C@H](c3cc(Cl)cc(Cl)c3)C2(Cl)Cl)ccc1F` (relative stereo) [F61, trans-5-(2,2-Dichloro-3-(3,5-dichlorophenyl)cyclopropane-1-carboxamido)-N-(2,4-difluorophenyl)-2-fluorobenzamide], the pest or weed control at 50 µg/cm2 in test [1] and in test [2] was 50 to 100% each time. Moreover, the “YFM (Biological Results, rating)” value in test [3] is “B (More than 0-Less than 80)”.
`O=C(Nc1ccc(F)cc1F)c1cc(NC(=O)[C@H]2[C@H](c3ccc(Cl)c(Cl)c3)C2(Cl)Cl)ccc1F` (relative stereo) [F62, trans-5-(2,2-Dichloro-3-(3,4-dichlorophenyl)cyclopropane-1-carboxamido)-N-(2,4-difluorophenyl)-2-fluorobenzamide]: the pest or weed control at 50 µg/cm2 in test [1] and in test [2] was 50 to 100% in each case. In addition, the “YFM (Biological Results, rating)” value in test [3] is “B (More than 0-Less than 80)”.
As for `CN(C(=O)c1cc(NC(=O)[C@H]2[C@H](c3cc(Cl)cc(Cl)c3)C2(Cl)Cl)ccc1F)c1ccc(F)cc1F` (relative stereo) [F63, trans-5-(2,2-Dichloro-3-(3,5-dichlorophenyl)cyclopropane-1-carboxamido)-N-(2,4-difluorophenyl)-2-fluoro-N-methylbenzamide], the pest or weed control at 50 µg/cm2 in test [1] and in test [2] was 50 to 100% throughout. Besides, the “YFM (Biological Results, rating)” value in test [3] is reported as “A (80-100)”.
Take `CN(C(=O)c1cc(NC(=O)[C@H]2[C@H](c3cc(Cl)c(Cl)c(Cl)c3)C2(Cl)Cl)ccc1F)c1ccc(F)cc1F` (relative stereo) [F65, trans-5-(2,2-Dichloro-3-(3,4,5-trichlorophenyl)cyclopropane-1-carboxamido)-N-(2,4-difluorophenyl)-2-fluoro-N-methylbenzamide]: the pest or weed control at 50 µg/cm2 in test [1] and in test [2] was 50 to 100% throughout. Besides, in test [3], the “YFM (Biological Results, rating)” value is “A (80-100)”.
Consider `CN(C(=O)c1cc(NC(=O)[C@H]2[C@H](c3cc(Cl)cc(Cl)c3)C2(Cl)Cl)ccc1F)c1ccccc1` (relative stereo) [F66, trans-5-(2,2-Dichloro-3-(3,5-dichlorophenyl)cyclopropane-1-carboxamido)-2-fluoro-N-methyl-N-phenylbenzamide], for which the pest or weed control at 50 µg/cm2 in test [1] and in test [2] was 50 to 100% throughout. The “YFM (Biological Results, rating)” value in test [3] is listed as “A (80-100)”.
For the compound `CN(C(=O)c1cc(NC(=O)[C@H]2[C@H](c3ccc(Cl)c(Cl)c3)C2(Cl)Cl)ccc1F)c1ccccc1` (relative stereo) [F67, trans-5-(2,2-Dichloro-3-(3,4-dichlorophenyl)cyclopropane-1-carboxamido)-2-fluoro-N-methyl-N-phenylbenzamide], the pest or weed control at 50 µg/cm2 in test [1] and in test [2] was 50 to 100% throughout. In addition, the “YFM (Biological Results, rating)” value in test [3] is “B (More than 0-Less than 80)”.
Turning to `CN(C(=O)c1cc(NC(=O)[C@H]2[C@H](c3cc(Cl)c(Cl)c(Cl)c3)C2(Cl)Cl)ccc1F)c1ccccc1` (relative stereo) [F68, trans-5-(2,2-Dichloro-3-(3,4,5-trichlorophenyl)cyclopropane-1-carboxamido)-2-fluoro-N-methyl-N-phenylbenzamide], the pest or weed control at 50 µg/cm2 in test [1] and in test [2] was 50 to 100% in each case. The “YFM (Biological Results, rating)” value in test [3] is given as “B (More than 0-Less than 80)”.
Take `CN(C(=O)c1cccc(NC(=O)[C@H]2[C@H](c3cc(Cl)cc(Cl)c3)C2(Cl)Cl)c1F)c1ccccc1` (relative stereo) [F69, trans-3-(2,2-Dichloro-3-(3,5-dichlorophenyl)cyclopropane-1-carboxamido)-2-fluoro-N-methyl-N-phenylbenzamide]: the pest or weed control at 50 µg/cm2 in test [1] and in test [2] was 50 to 100% in each case. Besides, the “YFM (Biological Results, rating)” value in test [3] was “B (More than 0-Less than 80)”.
For `CN(C(=O)c1cccc(NC(=O)[C@H]2[C@H](c3ccc(Cl)c(Cl)c3)C2(Cl)Cl)c1F)c1ccccc1` (relative stereo) [F70, trans-3-(2,2-Dichloro-3-(3,4-dichlorophenyl)cyclopropane-1-carboxamido)-2-fluoro-N-methyl-N-phenylbenzamide], the pest or weed control at 50 µg/cm2 in test [1] and in test [2] was 50 to 100% each time. For the same compound, the “YFM (Biological Results, rating)” value in test [3] is reported as “A (80-100)”.
Turning to `CN(C(=O)c1cccc(NC(=O)[C@H]2[C@H](c3cc(Cl)c(Cl)c(Cl)c3)C2(Cl)Cl)c1F)c1ccccc1` (relative stereo) [F71, trans-3-(2,2-Dichloro-3-(3,4,5-trichlorophenyl)cyclopropane-1-carboxamido)-2-fluoro-N-methyl-N-phenylbenzamide], the pest or weed control at 50 µg/cm2 in test [1] and in test [2] was 50 to 100% in each case. Besides, the “YFM (Biological Results, rating)” value in test [3] was “B (More than 0-Less than 80)”.
With `CN(C(=O)c1cc(NC(=O)[C@H]2[C@H](c3cc(Cl)c(Cl)cc3Cl)C2(Cl)Cl)ccc1Cl)c1ccc(F)cc1` (relative stereo) [F74, trans-2-Chloro-5-(2,2-dichloro-3-(2,4,5-trichlorophenyl)cyclopropane-1-carboxamido)-N-(4-fluorophenyl)-N-methylbenzamide], the pest or weed control at 50 µg/cm2 in test [1] and in test [2] was 50 to 100% throughout. Moreover, the “YFM (Biological Results, rating)” value in test [3] is recorded as “B (More than 0-Less than 80)”.
In the case of `O=C(Nc1ccc(F)cc1F)c1cc(NC(=O)[C@H]2[C@H](c3cc(Cl)c(Cl)c(Cl)c3)C2(Cl)Cl)ccc1F` (relative stereo) [F75, trans-5-(2,2-Dichloro-3-(3,4,5-trichlorophenyl)cyclopropane-1-carboxamido)-N-(2,4-difluorophenyl)-2-fluorobenzamide], the pest or weed control at 50 µg/cm2 in test [1] and in test [2] was 50 to 100% throughout. For the same compound, in test [3], the “YFM (Biological Results, rating)” value is recorded as “A (80-100)”.
Consider `O=C(Nc1ccc(F)cc1)c1cc(NC(=O)[C@H]2[C@H](c3ccc(C(F)(F)F)cc3)C2(Cl)Cl)ccc1Cl` (relative stereo) [F81, trans-2-Chloro-5-(2,2-dichloro-3-(4-(trifluoromethyl)phenyl)cyclopropane-1-carboxamido)-N-(4-fluorophenyl)benzamide], for which the pest or weed control at 50 µg/cm2 in test [1] and in test [2] was 50 to 100% throughout. Besides, the “YFM (Biological Results, rating)” value in test [3] is “A (80-100)”.
